# According to patent publication US20040229960A1, “Compositions and methods of administering tubulin binding agents for the treatment of ocular diseases” (priority 2001, published 2004):
# Columns and labels:
# [1] = Primary ocular irritation, sub-Tenon's injection; type: in vivo, rabbits; conditions: for Ocular irritation vs negative control eyes: two 0.1 ml sub-Tenon's injections, 24-72 h
# Procedure: The test article, CA4P, was evaluated for primary ocular irritation. Two 0.1 ml injections of the appropriate CA4P concentration (0.1, 1.0, 10 and 100 mg/ml) were injected into the sub-Tenon's space of the right eye of two rabbits. A 0.2 ml portion of buffered saline solution was injected into the sub-Tenon's space of the left eyes to serve as a negative control. Ocular reactions were evaluated at 24, 48 and 72 hours after the sample instillation. On day 3, rabbits were euthanized and eyes were removed. The specimens were fixed and embedded, and histology was performed. Histopathologic changes in the eye tissues were recorded with an emphasis placed on examination of changes in the sub-Tenon's space.
# [2] = Biodistribution of 14C-CA4P following topical administration of a solution formulation; type: in vivo, New Zealand rabbits
# Procedure: (§1) ^14C-CA4P (OXiGENE Inc., Watertown, Mass.) was resuspended in 100 ul volume of saline solution and injected with a 30 G needle into the right eyes of anesthesized male New Zealand rabbits (4 months old, 1.8-2.5 kg, n=3 per sample). Three different concentrations of ^14C-CA4P were tested (1, 10, 100 mg/ml) corresponding to doses of 1, 5, and 5 uCi of applied radioactivity respectively. A blank control group was also included. Rabbits were anaesthetized at 1, 6, 24, and 48 hours for blood sampling. After blood collection, the animals were euthanized by Phenobarbital injection and the treated right eyes were removed from all test animals. Ocular tissue samples were dissected from the cornea, aqueous humor, vitreous humor, choroid, or retina, placed in 20-mi glass scintillation vials, vortexed, and incubated for 24 hrs with 500 ul digesting fluid. Plasma was separated from whole blood by centrifugation (1,800 g for 10 minutes). Both ocular tissue samples and plasma were incubated at room temperature with 16 ml of Hionic Fluor™ scintillation fluid for a period of 24 hours prior to radioactivity counting. Each sample was counted for 5 minutes in a Betamatic V counter (Bio-Tek Kontron Instruments, St Quentin en Yvelines, France). The conversion of counts per minute (“cpm”) into disintegrations per minute (“dpm”) was performed automatically by the beta-counter, using calibration curves obtained from ^14C-standards and quenching curves from the respective blank matrices spiked with ^14C-standards. The concentration of drug was determined according to nanogram equivalents of CA4P (ng-Eq/g of tissue) which was calculated from the measured dpm value, the weight of the tissue specimen, and the specific activity of the drug (0.37 mCi/mg), followed by subtraction of the corresponding background value from control eye tissue. A tissue concentration of 1 uM CA4P is equal to […] tissue.
# (§2) Topical gels and solutions were developed for use as topical formulation suitable for the topical delivery of CA4P to the surface of the eye. Topical solutions (1, 3, and 10%) was directly prepared in 0.9% NaCl (Aguettant, Lyon, France) and sterilized with 0.2 um filter (pH 6.4 to 8.5, osmolarity 290 to 459 mosmol/kg H2O. Low viscosity topical gels (1,3,and 10%) were prepared in 0.5% carboxymethylcellulose (Sigma Aldrich Chimie, St. Quentin Fallavier Cedex, France) with 0.9% NaCl. The physicochemical specifications of each gel are listed in Table 5
# (§3) Topical formulations were applied to the surface of right eyes at an applied dose of 5 uCi in a volume of 50 ul. Cornea was sampled instead of sclera. Samples were taken at […] and 24 hours.
# [3] = Biodistribution of 14C-CA4P following topical administration of a gel; type: in vivo, New Zealand rabbits
# Procedure: as §1, §2, §3
# [4] = test system: corneal neovascularization; experiment: LHP-induced rabbit corneal neovascularization model, IP treatment; type: in vivo, New Zealand rabbits; conditions: for Effect on neovascular growth: 50 mg/kg IP
# Description: To assess the ability of CA4P to inhibit corneal neovascularization, a rabbit corneal model was used in which neovascularization was induced by linoleic acid hydroperoxide (“LHP”) injection (Ueda et al., Angiogenesis, 1997, 1: 174-184). Injection of LHP in the corneal stroma stimulates the localized production of angiogenic cytokines within the cornea. Blood vessels in the circumlimbal plexus respond to the angiogenic stimulation by migrating towards the site of LHP injection. Therapeutic efficacy of systemically delivered CA4P was assessed by measuring the length of these proliferating vessels.
# Vessels grew at a rate of 0.25 mm/day. Groups 2 and 4 were injected intraperitoneally (“IP”) with CA4P (50 mg/kg) after 3 and 10 days of vessel growth respectively. Treatment groups 1 and 3 were injected with saline control on day 3 and day 10 post-LHP injection. Surface photographs of the cornea were taken at 0, 3, 6, 12, 17, and 28 days post-LHP injection. Following each photographic session, corneal vessels were observed under an operating microscope and Castroviejo calipers were used to measure the length of the most prominent vessel.
# In addition to longest-vessel measurements, histology analysis was undertaken on day 28 to assess the amount of dissolved extracellular matrix, vessel wall thickness, and degree of vessel branching. Euthanized animals were enucleated and the vitreous was removed from each eye prior to fixation in 4% paraformaldehyde for 45 minutes and 0.2M cacodylate buffer (pH 7.4) overnight. Eyes were embedded in paraffin, sectioned to a 3 um thickness, and stained with […] and eosin.
# [5] = early intervention, 50 mg/kg IP qd x 5 from Day 3 (Group 2)
compound,measurement,setting,value
"COc1ccc(/C=C\c2cc(OC)c(OC)c(OC)c2)cc1OP(=O)([O-])[O-].[Na+].[Na+] [CA4P, combretastatin A4 disodium phosphate]",Ocular irritation vs negative control eyes,[1]; 0.1 and 1.0 mg/ml,no irritation was observed
same,Ocular irritation vs negative control eyes,[1]; 10 and 100 mg/ml,Slight irritation was observed
same,Irritation (Draize Scores),"[1]; Sub-Tenon's, 0-10 mg",No Irritation
same,Cmax,"[2]; aqueous humor, 1% topical solution",600 nM
same,Cmax,"[2]; aqueous humor, 3% topical solution",1900 nM
same,Cmax,"[2]; aqueous humor, 10% topical solution",4100 nM
same,Cmax,"[2]; choroid, 1% topical solution",870 nM
same,Cmax,"[2]; choroid, 3% topical solution",1900 nM
same,Cmax,"[2]; choroid, 10% topical solution",15600 nM
same,Cmax,"[2]; cornea, 1% topical solution, 50 ul",10000 nM
same,Cmax,"[2]; cornea, 3% topical solution, 50 ul",34000 nM
same,Cmax,"[2]; cornea, 10% topical solution, 50 ul",104000 nM
same,Concentration of drug delivered,"[2]; cornea, all three solution formulations",> 1000 nM
same,Cmax,"[2]; plasma, 1% topical solution",70 nM
same,Cmax,"[2]; plasma, 3% topical solution",840 nM
same,Cmax,"[2]; plasma, 10% topical solution",1270 nM
same,Cmax,"[2]; retina, 1% topical solution",270 nM
same,Cmax,"[2]; retina, 3% topical solution",390 nM
same,Cmax,"[2]; retina, 10% topical solution",4200 nM
same,Time of highest concentrations of drug in the eye,[2]; topical solution,within the first hour
same,Cmax,"[3]; aqueous humor, 1% topical gel",2400 nM
same,Cmax,"[3]; aqueous humor, 3% topical gel",8200 nM
same,Cmax,"[3]; aqueous humor, 10% topical gel",13000 nM
same,Cmax,"[3]; choroid, 1% topical gel",2800 nM
same,Cmax,"[3]; choroid, 3% topical gel",10700 nM
same,Cmax,"[3]; choroid, 10% topical gel",22500 nM
same,Concentration of drug delivered,"[3]; cornea, retina and choroid, all three gel formulations",> 1000 nM
same,Cmax,"[3]; cornea, 1% topical gel, 50 ul",82000 nM
same,Cmax,"[3]; cornea, 3% topical gel, 50 ul",118000 nM
same,Cmax,"[3]; cornea, 10% topical gel, 50 ul",292000 nM
same,Cmax,"[3]; plasma, 1% topical gel",90 nM
same,Cmax,"[3]; plasma, 3% topical gel",560 nM
same,Cmax,"[3]; plasma, 10% topical gel",1630 nM
same,Cmax,"[3]; retina, 1% topical gel",1000 nM
same,Cmax,"[3]; retina, 3% topical gel",5800 nM
same,Cmax,"[3]; retina, 10% topical gel",5800 nM
same,Time of highest concentrations of drug in the eye,[3]; topical gel,within the first hour
same,Histology of corneal vessels,"[4]; Day 28, stained sections, vs vehicle (round and numerous)",vessels appeared narrow and less numerous
same,Vessel Length on Day 6,[4]; [5],0.7 ± 0.16 mm
same,Vessel Length on Day 12,[4]; [5],0.5 ± 0.61 mm
same,Vessel Length on Day 3,"[4]; early intervention, 50 mg/kg IP qd x 5 from Day 3 (Group 2), Day 3 = treatment start",0.6 ± 0.12 mm
same,Effect on neovascular growth,[4]; intervention 10 days after angiogenic stimulation,the effect was the same
same,Effect on neovascular growth,[4]; intervention within 3 days of angiogenic stimulation,complete inhibition of neovascular growth
same,Vessel Length on Day 12,"[4]; late intervention, 50 mg/kg IP from Day 10 (Group 4), first column",2.6 ± 0.29 mm
same,Vessel Length on Day 12,"[4]; late intervention, 50 mg/kg IP from Day 10 (Group 4), second column",2.8 ± 0.49 mm
same,Regression rate of preformed vessels in the eye,"[4]; rabbit eyes, preliminary work (FIGS. 3, 4)",accelerated the regression rate of preformed vessels
